The text below walks through data of US8853193B2, “Thienopyrimidines containing a substituted alkyl group for pharmaceutical compositions” (Boehringer Ingelheim International GmbH, priority 2010, dated 2014).

Molecules are shown by their SMILES. Structures can show the parent of a compound that is named as a salt.

In one experiment the target is human Mnk2a (Homo sapiens (Human), UniProt Q9HBH9). Description: Mnk2a in vitro kinase assay (indirect competitive fluorescence polarization). The class given is biochemical. The following applies: pre-activated GST-Mnk2a 2.5 nM, 20 μM ATP, 30 μM substrate peptide; read-out: MNK2 IC50. The essentials: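 GST-tagged human Mnk2a expressed in E. coli and glutathione-purified, then activated at 2.5 μM with 150 nM pre-activated NHis-ERK2 and 50 μM ATP in HEPES/KOH pH 7.4, MgCl2, DTT, Brij 78 for 45 min at 30 °C. Phospho-peptide product read by indirect competitive fluorescence polarization against fluorophore-labelled phospho-peptide bound to phospho-specific antibody.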
human Mnk2a, sequence (Q9HBH9 whole entry): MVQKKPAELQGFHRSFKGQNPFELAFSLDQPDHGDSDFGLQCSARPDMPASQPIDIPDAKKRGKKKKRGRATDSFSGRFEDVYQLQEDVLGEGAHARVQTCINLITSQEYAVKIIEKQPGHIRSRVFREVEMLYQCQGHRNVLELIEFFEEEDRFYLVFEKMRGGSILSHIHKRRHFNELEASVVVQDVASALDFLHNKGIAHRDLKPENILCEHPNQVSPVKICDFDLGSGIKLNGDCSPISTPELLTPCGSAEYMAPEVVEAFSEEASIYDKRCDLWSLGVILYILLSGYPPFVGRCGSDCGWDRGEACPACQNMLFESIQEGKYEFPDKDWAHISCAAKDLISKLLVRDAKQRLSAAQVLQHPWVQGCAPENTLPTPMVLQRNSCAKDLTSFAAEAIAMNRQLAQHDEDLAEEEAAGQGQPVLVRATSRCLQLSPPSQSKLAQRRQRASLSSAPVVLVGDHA
(In fluorescence polarisation assays a small probe gives low polarisation when free and higher when bound to something large.)
One may read the IC50 as the concentration that gives 50% inhibition. Take `COC(=O)c1sc2ncnc(Nc3ccc(F)cc3OC(C)CCNS(C)(=O)=O)c2c1C` (stereo not shown) [Compound 13, Methyl 4-(4-fluoro-2-(4-(methylsulfonamido)butan-2yloxy)phenylamino)-5-methyl-thieno[2,3-d]pyrimidine-6-carboxylate]: the IC50 was found to be 90 nM.
Still for that read-out and setting: the figure for `COC(=O)c1sc2ncnc(Nc3ccc(F)cc3OC(CF)CF)c2c1C` [Compound 23-1, Methyl 4-(2-(1,3-difluoropropan-2-yloxy)-4-fluorophenylamino)-5-methyl-thieno[2,3-d]pyrimidine-6-carboxylate] is 78 nM; for `Cc1c(C(=O)NCCCN(C)C)sc2ncnc(Nc3cccnc3OCC3CC3(F)F)c12` (stereo not shown) [Compound 34, 4-(2-((2,2-Difluorocyclopropyl)methoxy)pyridin-3-ylamino)-N-(3-(dimethylamino)propyl)-5-methylthieno[2,3-d]pyrimidine-6-carboxamide hydrochloride] it is 54 nM.
Same read-out and setting: in the case of `Cc1c(C(=O)NCCCN(C)C)sc2ncnc(Nc3cccnc3OCC3(CC#N)CC3)c12` [Compound 33, 4-(2-((1-(Cyanomethyl)cyclopropyl)methoxy)pyridin-3-ylamino)-N-(3-(dimethylamino)propyl)-5-methylthieno[2,3-d]pyrimidine-6-carboxamide hydrochloride] it was 47 nM; in that of `CCNC(=O)C(C)Oc1cc(F)ccc1Nc1ncnc2sc(C(=O)NC)c(C)c12` (stereo not shown) [Compound 31-6, 4-(2-(1-(ethylamino)-1-oxo-propan-2-yloxy)-4-fluorophenyl-amino)-N,5-dimethyl-thieno[2,3-d]pyrimidine-6-carbox-amide], 13 nM.
Still for that read-out and setting: in the case of `Cc1c(C(=O)NCCCN(C)C)sc2ncnc(Nc3ccc(F)cc3OCCC(F)(F)F)c12` [Compound 32-38] it was 26 nM; in that of `COC(=O)c1sc2ncnc(Nc3ccc(F)cc3OC(C)CCNC(C)=O)c2c1C` (stereo not shown) [Compound 13-2, Methyl 4-(2-(4-acetamidobutan-2-yloxy)-4-fluorophenyl-amino)-5-methyl-thieno[2,3-d]pyrimidine-6-carboxylate], 471 nM; in that of `COC(=O)c1sc2ncnc(Nc3ccc(F)cc3OC(C)CCN(C)C)c2c1C` (stereo not shown) [Compound 14], 1020 nM.
Turning to `Cc1c(C(=O)NCCO)sc2ncnc(Nc3ccc(F)cc3OC(CF)CF)c12` [Compound 23-8], the IC50 was 8 nM.
With `Cc1c(C(N)=O)sc2ncnc(Nc3cccnc3OC(C)CCNS(C)(=O)=O)c12` (stereo not shown) [Compound 45, 4-[2-(3-Methanesulfonylamino-1-methyl-propoxy)-pyridin-3-ylamino]-5-methyl-thieno[2,3-d]pyrimidine-6-carboxylic acid amide], the IC50 came to 20 nM.
Same read-out and setting: in the case of `Cc1c(C(=O)NCCCN(C)C)sc2ncnc(Nc3ccc(F)cc3OCC(C)F)c12` (stereo not shown) [Compound 32-39] it was 35 nM.
The same measure, in the same setting: the figure for `Cc1c(C(=O)NCC#CCN(C)C)sc2ncnc(Nc3cccnc3OC(C)C)c12` [Compound 36-16] is 22 nM.
Same read-out and setting: the figure for `Cc1c(C(=O)NCC#CCN(C)C)sc2ncnc(Nc3ccc(C#N)cc3OC(CF)CF)c12` [Compound 52, 4-(4-Cyano-2-(2-fluoro-1-fluoromethyl-ethoxy)-phenylamino]-5-methyl-thieno[2,3-d]pyrimidine-6-carboxylic acid (4-dimethylamino-but-2-ynyl)-amide] is 25 nM; for `Cc1c(C(N)=O)sc2ncnc(Nc3cccnc3OC(C)CCN)c12` (stereo not shown) [Compound 16-4] it is 44 nM; for `CCNC(=O)C(C)Oc1cc(F)ccc1Nc1ncnc2sc(C(=O)NCCO)c(C)c12` (stereo not shown) [Compound 41] it is 31 nM.
As for `Cc1c(C(=O)N[C@H]2C[C@@H]2N)sc2ncnc(Nc3cccnc3OC(C)C)c12` [Compound 36-6, N-((1S,2S)-2-Aminocyclopropyl)-4-(2-isopropoxypyridin-3-ylamino)-5-methylthieno[2,3-d]pyrimidine-6-carboxamide], the half-maximal inhibitory concentration (IC50) was 55 nM.
Same read-out and setting: in the case of `COC(=O)c1sc2ncnc(Nc3ccc(F)cc3OC(CN)CN)c2c1C` [Compound 18-2, Methyl 4-(2-(1,3-diaminopropan-2-yloxy)-4-fluorophenylamino)-5-methylthieno[2,3-d]pyrimidine-6-carboxylate bis(trifluoroacetate)] it was 691 nM.
The same measure, in the same setting: in the case of `Cc1c(C(=O)NCCO)sc2ncnc(Nc3ccc(F)cc3OCCO)c12` [Compound 32-33] it was 65 nM.

The next experiment concerns Mnk2 (Mnk2a or Mnk2b) or Mnk1.
Test: not given
The conditions noted are these: cells transfected with Mnk2 (Mnk2a or Mnk2b) or Mnk1; cited from earlier work.
With `Nc1ncnc2n[nH]c(Nc3ccc(F)cc3)c12` [CGP57380], the “reduction of phosphorylated eIF4E” value was “strong reduction of phosphorylated eIF4E”.
